From US11312722B2, “Hsp90 inhibitors and uses thereof” (TRUSTEES OF BOSTON UNIVERSITY, priority 2019, dated 2022)

Tests used:
C. albicans Hsp90 NBD [1] = target: T1, C. albicans Hsp90 NBD (Candida albicans (strain SC5314 / ATCC MYA-2876) (Yeast), UniProt P46598); details: cited from earlier work
[2] = test system: C. albicans clinical isolate (CaCi2); type: cell-based; details: moderately fluconazole-resistant clinical isolate of C. albicans (CaCi2), 8 μg/mL fluconazole
Description: (§1) Color scale bar: no growth inhibition (green) to complete inhibition (black). Each shaded box represents the mean of technical duplicates. The experiment was repeated as an independent biological replicate to confirm results.
(§2) Each shaded box represents the mean of technical duplicates. Relative viable cell number was monitored by standard dye reduction assay after 3-hr incubation with resazurin at 37° C. FIG. 6B: Following exposure to compounds, aliquots of the culture in each well were spotted onto compound-free YPD agar and plates incubated at 30° C. for an additional 24 hours before imaging to assess viability. The entire experiment consisting of growth in liquid culture followed by spotting onto YPD agar was repeated once.
Yeast strains and culture conditions. Strains used in this study were C. albicans CaCi2 (clinical isolate 2), [58] SC5314, [59] and C. neoformans H99. […] Active cultures were maintained on solid (2% agar) yeast extract peptone (YPD, 1% yeast extract, 2% bactopeptone, 2% glucose) at 4° C. for no more than one month.
(§3) Antifungal sensitivity testing. […] Each compound was tested in duplicate in at least two independent experiments. […] Plates were photographed after 24 h of incubation at 30° C.

[3] = test system: C. albicans clinical isolate (CaCi2); assay: Fungicidal activity: spotting of MIC cultures onto compound-free YPD agar; type: cell-based; details: C. albicans CaCi2, spotted on YPD agar after 48 h exposure
Description: as §1, §2, §3

C. albicans Hsp90 NBD [4] = target: T1, C. albicans Hsp90 NBD; type: binding; details: equimolar protein and ligand (10 μM)
Description: Using recombinant proteins, assay-independent nanomolar inhibitory constants (Ki) were defined for these compounds. Binding of the compounds to their relevant NBD by thermal shift denaturation assays was also confirmed. Thermal shift assays were performed under saturating ligand conditions, i.e. equimolar concentrations (10 μM) of protein and ligand. As a result, they can provide only qualitative evidence of target binding, but not a quantitative measurement of ligand affinity. […] […]. C. neoformans or C. albicans Hsp90 NBD was combined with equimolar concentrations of the indicated bioactive inhibitors (10 μM) or DMSO control, in technical triplicates. The protein was heated from 25 to 98.6° C. at 0.2° C./5 s in the presence of Sypro Orange dye. All compounds induce an increase in melting temperature relative to the DMSO control, reported as ΔTm.
Protein thermal shift assays. Thermal melting curves were determined using a Protein Thermal Shift Kit (ThermoFisher #4462263), employing a CFX384 Real-Time PCR System (Bio-Rad, C1000 Touch Thermal Cycler). […] Temperature shift, ΔTm, was recorded as the difference between the Tm of the fungal Hsp90 NBD with compound minus Tm of the protein without compound.

C. neoformans Hsp90 NBD = C. neoformans Hsp90 NBD (Cryptococcus neoformans, UniProt J9VVA4); assay: biochemical; type: binding; details: SPR, 25° C., read-out: Biacore KD
Sequence of C. neoformans Hsp90 NBD (J9VVA4 1-699): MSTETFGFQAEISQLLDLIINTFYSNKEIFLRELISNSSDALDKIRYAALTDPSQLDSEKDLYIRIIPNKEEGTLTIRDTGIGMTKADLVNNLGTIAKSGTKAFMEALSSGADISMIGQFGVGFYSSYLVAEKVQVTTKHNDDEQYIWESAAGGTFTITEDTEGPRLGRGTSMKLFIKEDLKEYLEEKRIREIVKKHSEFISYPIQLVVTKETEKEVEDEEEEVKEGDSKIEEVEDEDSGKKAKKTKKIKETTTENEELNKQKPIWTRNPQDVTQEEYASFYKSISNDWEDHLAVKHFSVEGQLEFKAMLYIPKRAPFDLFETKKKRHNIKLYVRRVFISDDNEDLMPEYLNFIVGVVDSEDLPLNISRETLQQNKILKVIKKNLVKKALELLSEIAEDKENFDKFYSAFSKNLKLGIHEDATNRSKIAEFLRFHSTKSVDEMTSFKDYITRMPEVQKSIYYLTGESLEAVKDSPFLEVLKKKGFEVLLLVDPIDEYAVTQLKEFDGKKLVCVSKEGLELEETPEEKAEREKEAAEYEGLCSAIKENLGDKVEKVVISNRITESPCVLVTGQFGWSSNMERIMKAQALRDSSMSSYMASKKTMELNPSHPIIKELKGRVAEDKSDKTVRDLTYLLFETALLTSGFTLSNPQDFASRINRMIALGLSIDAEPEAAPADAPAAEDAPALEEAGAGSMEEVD
Description: (§4) SPR assays. For SPR experiments, Hsp90 NBD expression constructs were modified to encode a C-terminal AviTag™ for site-specific on-column biotinylation with a BirA biotin-ligase kit (Avidity LLC; BirA-500). SPR experiments were performed on a Biacore T200 instrument at 25° C. Biotinylated Hsp90 NBD was diluted to 40 μg/mL and immobilized on a streptavidin chip (Sensor Chip SA, GE Healthcare) at a density of 2000-2500 response units (RU) on the biosensor surface. […] Resulting sensorgrams were analyzed with a fit to a 1:1 binding model, using BIA evaluation software.

[5] = test system: C. neoformans (Strain H99); assay: Antifungal sensitivity testing (MIC), C. neoformans H99; type: cell-based
C. albicans Hsp90 NBD [6] = target: T1, C. albicans Hsp90 NBD; assay: biochemical; type: binding
Description: as §4

T1 sequence (P46598 1-240 limits assumed): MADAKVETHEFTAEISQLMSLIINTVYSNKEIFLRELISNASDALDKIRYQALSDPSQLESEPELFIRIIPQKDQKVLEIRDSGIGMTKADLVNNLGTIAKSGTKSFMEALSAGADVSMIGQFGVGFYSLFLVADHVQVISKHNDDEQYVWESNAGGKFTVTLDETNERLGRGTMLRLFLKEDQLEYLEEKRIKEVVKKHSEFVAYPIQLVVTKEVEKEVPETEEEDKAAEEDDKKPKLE

Row | Structure (SMILES) | binding selectivity for the C. albicans Hsp90 NBD compared to the human ortholog (C. albicans Hsp90 NBD [1]) | MIC in combination with fluconazole [2] | fungicidal activity in combination with fluconazole [3] | C. albicans NBD ΔTm (C. albicans Hsp90 NBD [4]) | Kd (C. neoformans Hsp90 NBD) | MIC80 ([5]; Cryptococcus neoformans, read-out: C. neo MIC80) | MIC90 ([5]; Cryptococcus neoformans, read-out: C. neo MIC90) | C. neo Active (cells) ([5]; Yes/No call) | Kd (C. albicans Hsp90 NBD [6])
1 | COc1ccc(CON=C2C=CC=CC3OC3CC(C)OC(=O)c3c(O)cc(O)cc3C2)cc1 (stereo not shown) [CMLD013075] | > 25 fold | – | – | – | – | – | – | – | –
2 | Cn1nc(-c2ccc(OC(F)(F)F)cc2)cc1Nc1cc(O)cc(O)c1C(=O)N1Cc2ccccc2C1 [Compound 130, 4-(2,3-Dihydro-1H-isoindole-2-carbonyl)-5-((1-methyl-3-(4-(trifluoromethoxy)phenyl)-1H-pyrazol-5-yl)amino)benzene-1,3-diol] | – | 12.5 µM | converted the fungistatic activity of fluconazole to fungicidal | 9 °C | 7 nM | > 25 µM | > 25 µM | No | –
3 | C[C@@H]1C[C@H]2O[C@@H]2/C=C\C=C\C(=O)Cc2c(Cl)c(O)cc(O)c2C(=O)O1 [Radicicol, radicicol] | – | – | – | – | 2 nM | – | – | – | 2 nM
